Experimental data reported in ChEMBL document CHEMBL6127028, “Design and synthesis of TH19P01-Camptothecin based hybrid peptides inducing effective anticancer responses on sortilin positive cancer cells” (Bioorg Med Chem, 2024).
In brackets after ≈: the same amount, converted by molar mass. Activity calls are given as the source filed them. The rule behind the calls is not given here. Where a SMILES comes first, the peptide text is derived from it. [ ]: non-standard residue; d: D form. The star is where a group is joined. Succinyl(20-O-(20S)-CPT) = CC[C@@]1(OC(=O)CCC(=O)*)C(=O)OCc2c1cc1n(c2=O)Cc2cc3ccccc3nc2-1; Dnp = O=[N+]([O-])c1ccc(*)c([N+](=O)[O-])c1; DEAC = CCN(CC)c1ccc2cc(C(=O)*)c(=O)oc2c1; Nle = CCCC[C@H](N)C(=O)O

Assays:
[1] = Drug uptake in human MDA-MB-231 cells assessed as increase in blue fluorescence intensity at 10 uM by SYBR Green I staining based live cell imaging analysis; type: ADME; settings: mda-mb-231, 10 µM, TDE = time-dependent effect, time 2-12 hrs
MDA-MB-231 [2] = assay: Cytostatic activity against human MDA-MB-231 cells overexpressing SORT1 assessed as reduction in cell viability incubated for 72 hrs by MTT assay; type: functional, cell-based; settings: MDA-MB-231, 72 h
[3] = Prodrug conversion in 5% human serum assessed as CPT release by measuring increase in fluorescence intensity at 50 uM measured at 0 hrs by fluorescence spectrophotometric analysis; type: ADME, cell-free
[4] = Prodrug conversion in human MDA-MB-231 cells overexpressing SORT1 assessed as CPT release by measuring increase in fluorescence intensity at 1.5 uM measured for 120 hrs by fluorescence based analysis; type: ADME, cell-based; settings: mda-mb-231, 120 h
[5] = Prodrug conversion in 5% human serum assessed as CPT release by measuring increase in fluorescence intensity at 50 uM measured for 6 days by fluorescence spectrophotometric analysis; type: ADME, cell-free; settings: 144 h, time 6 day
[6] = Drug uptake in human MDA-MB-231 cells assessed as increase in blue fluorescence intensity at 10 uM measured after 2 to 12 hrs by SYBR Green I staining based live cell imaging analysis; type: ADME; settings: mda-mb-231, 10 µM, time 2-12 hrs
[7] = Cytostatic activity against mouse L929 cells assessed as reduction in cell viability incubated for 72 hrs by MTT assay; type: toxicity, cell-based
[8] = Induction of hemolysis in mouse erythrocytes assessed as hemolysis rate at 0.3 uM incubated for 4 hrs; type: toxicity, cell-based, Erythrocyte; settings: read-out: Activity
4T1 [9] = assay: Anti-migration activity against mouse 4T1 cells assessed as cell motility at 1.5 uM incubated for 2 hrs followed by PBS washing and incubation in complete medium for 24 hrs by wound healing assay (reference value: 68.9%); type: functional
MDA-MB-231 [10] = assay: Anti-proliferative activity against human MDA-MB-231 cells assessed as inhibition of cell proliferation at 1XIC50 measured after 72 hrs by time-kill curve analysis; type: functional
Erythrocyte [11] = assay: Induction of hemolysis in mouse erythrocytes at 0.03 to 30 uM incubated for 4 hrs; type: toxicity, cell-based; settings: dose 0.03-30 µM
MDA-MB-231 [12] = assay: Anti-proliferative activity against human MDA-MB-231 cells assessed as inhibition of cell proliferation at 1XIC50 measured at <36 hrs by time-kill curve analysis; type: functional
[13] = Induction of hemolysis in mouse erythrocytes assessed as hemolysis rate at 30 uM incubated for 4 hrs; type: toxicity, cell-based, Erythrocyte; settings: read-out: Activity
[14] = Aqueous solubility of the compound in water by UV/Vis spectrophotometry relative to free camptothecin; type: physicochemical; settings: buffer
4T1 [15] = assay: Cytostatic activity against mouse 4T1 cells expressing low SORT1 assessed as reduction in cell viability incubated for 72 hrs by MTT assay; type: functional, cell-based; settings: 4T1, 72 h
[16] = Cytostatic activity against HEK293T cells assessed as reduction in cell viability incubated for 72 hrs by MTT assay; type: toxicity, cell-based, HEK-293T; settings: human
MDA-MB-231 [17] = assay: Anti-migration activity against human MDA-MB-231 cells assessed as cell motility at 1.5 uM incubated for 2 hrs followed by PBS washing and incubation in complete medium for 24 hrs by wound healing assay (reference value: 55.3%); type: functional
MDA-MB-231 [18] = assay: Anti-proliferative activity against human MDA-MB-231 cells assessed as inhibition of cell proliferation at 0.5XIC50 to 1XIC50 measured after 36 to 72 hrs by time-kill curve analysis; type: functional, cell-based; settings: time 36-72 hrs
MDA-MB-231 [19] = assay: Anti-proliferative activity against human MDA-MB-231 cells assessed as inhibition of cell proliferation at 1.5 uM measured for 0 to 72 hrs by time-kill curve analysis; type: functional; settings: time 0-72 hrs
MDA-MB-231 [20] = assay: Anti-proliferative activity against human MDA-MB-231 cells assessed as inhibition of cell proliferation at 1XIC50 measured after 72 hrs in presence of TH19P01 by time-kill curve analysis; type: functional
Erythrocyte [21] = assay: Induction of hemolysis in mouse erythrocytes at >3 uM incubated for 4 hrs in presence of TH19P01; type: toxicity, cell-based
[22] = Aqueous solubility of the compound in water by UV/Vis spectrophotometry; type: physicochemical
MDA-MB-231 [23] = assay: Anti-proliferative activity against human MDA-MB-231 cells assessed as inhibition of cell proliferation at 1XIC50 measured for 0 to 72 hrs in presence of TH19P01 by time-kill curve analysis; type: functional, cell-based; settings: time 0-72 hrs
MDA-MB-231 [24] = assay: Anti-proliferative activity against human MDA-MB-231 cells assessed as inhibition of cell proliferation at 1XIC50 measured for 0 to 72 hrs by time-kill curve analysis; type: functional, cell-based; settings: time 0-72 hrs
MDA-MB-231 [25] = assay: Anti-migration activity against human MDA-MB-231 cells assessed as cell motility at 1.5 uM incubated for 2 hrs in presence of TH19P01 followed by PBS washing and incubation in complete medium for 24 hrs by wound healing assay (reference value: 55.3%); type: functional
MDA-MB-231 [26] = assay: Cytostatic activity against human MDA-MB-231 cells overexpressing SORT1 assessed as reduction in cell viability incubated for 72 hrs in presence of TH19P01 by MTT assay; type: functional, cell-based; settings: MDA-MB-231, 72 h
4T1 [27] = assay: Anti-migration activity against mouse 4T1 cells at 1.5 uM incubated for 2 hrs in presence of TH19P01 followed by PBS washing and incubation in complete medium for 24 hrs by wound healing assay; type: functional, cell-based
4T1 [28] = assay: Cytostatic activity against mouse 4T1 cells expressing low SORT1 assessed as reduction in cell viability incubated for 72 hrs in presence of TH19P01 by MTT assay; type: functional, cell-based; settings: 4T1, 72 h
[29] = Drug uptake in human MDA-MB-231 cells assessed as increase in blue fluorescence intensity at 10 uM measured after 2 to 12 hrs in presence of TH19P01 by SYBR Green I staining based live cell imaging analysis; type: ADME; settings: mda-mb-231, 10 µM, time 2-12 hrs

Compound	IC50 (MDA-MB-231 [2]) [µM]	IC50 at 72 h [7] [µM]	Activity (4T1 [9]) [%]	inhibition (INH) (MDA-MB-231 [10]) [%]	Activity (Erythrocyte [11])	IC50 (4T1 [15]) [µM]	IC50 at 72 h [16] [µM]	Activity (MDA-MB-231 [17]) [%]	further results
CCCC[C@H](NC(=O)[C@H](CC(N)=O)NC(=O)[C@H](CCCNC(=N)N)NC(=O)[C@@H](NC(=O)CNC(=O)[C@H](C)NC(=O)[C@H](CCCCNC(=O)c1cc2ccc(N(CC)CC)cc2oc1=O)NC(=O)[C@H](C)NC(=O)[C@H](CCCNC(=N)N)NC(=O)[C@@H](NC(=O)CNC(C)=O)C(C)C)C(C)C)C(=O)N[C@@H](Cc1ccccc1)C(=O)N[C@@H](CCCCNC(C)=O)C(=O)N[C@@H](CO)C(=O)N[C@@H](CCC(=O)O)C(=O)N[C@@H](CO)C(=O)N[C@@H](Cc1ccc(O)cc1)C(N)=O (Ac-GVRAK(DEAC)AGVRN[Nle]FK(Ac)SESY-NH2)	> 100	–	–	–	–	–	–	–	Drug uptake [1]: Tde
CCCC[C@H](NC(=O)[C@H](CC(N)=O)NC(=O)[C@H](CCCNC(=N)N)NC(=O)[C@@H](NC(=O)CNC(=O)[C@H](C)NC(=O)[C@H](CCCCNC(=O)CCC(=O)O[C@]1(CC)C(=O)OCc2c1cc1n(c2=O)Cc2cc3ccccc3nc2-1)NC(=O)[C@H](CCCCNc1ccc([N+](=O)[O-])cc1[N+](=O)[O-])NC(=O)[C@H](C)NC(=O)[C@H](CCCNC(=N)N)NC(=O)[C@@H](NC(=O)CNC(C)=O)C(C)C)C(C)C)C(=O)N[C@@H](Cc1ccccc1)C(=O)N[C@@H](CCCCNc1ccc([N+](=O)[O-])cc1[N+](=O)[O-])C(=O)N[C@@H](CCCCNC(=O)CCC(=O)O[C@]1(CC)C(=O)OCc2c1cc1n(c2=O)Cc2cc3ccccc3nc2-1)C(=O)N[C@@H](CO)C(=O)N[C@@H](CCC(=O)O)C(=O)N[C@@H](CO)C(=O)N[C@@H](Cc1ccc(O)cc1)C(N)=O (Ac-GVRAK(Dnp)K(Succinyl(20-O-(20S)-CPT))AGVRN[Nle]FK(Dnp)K(Succinyl(20-O-(20S)-CPT))SESY-NH2)	1.52	–	–	–	–	–	–	–	Drug metabolism [3]: Metabolite_Notdetected; Drug metabolism [4]: Metabolite_Detected; Drug metabolism [5]: Metabolite_Detected
CCCC[C@H](NC(=O)[C@H](CC(N)=O)NC(=O)[C@H](CCCNC(=N)N)NC(=O)[C@@H](NC(=O)CNC(=O)[C@H](C)NC(=O)[C@H](CCCCNC(=O)CCC(=O)O[C@]1(CC)C(=O)OCc2c1cc1n(c2=O)Cc2cc3ccccc3nc2-1)NC(=O)[C@H](C)NC(=O)[C@H](CCCNC(=N)N)NC(=O)[C@@H](NC(=O)CNC(C)=O)C(C)C)C(C)C)C(=O)N[C@@H](Cc1ccccc1)C(=O)N[C@@H](CCCCNC(=O)CCC(=O)O[C@]1(CC)C(=O)OCc2c1cc1n(c2=O)Cc2cc3ccccc3nc2-1)C(=O)N[C@@H](CO)C(=O)N[C@@H](CCC(=O)O)C(=O)N[C@@H](CO)C(=O)N[C@@H](Cc1ccc(O)cc1)C(N)=O (Ac-GVRAK(Succinyl(20-O-(20S)-CPT))AGVRN[Nle]FK(Succinyl(20-O-(20S)-CPT))SESY-NH2)	1.47	> 100	58.6	45.3	Toxic	2.05	11.1	13.3	Drug uptake [6]: Active; hemolysis at 4 h, 0.3 µM [8]: 1.5%; inhibition (INH) (MDA-MB-231 [12]): <10%; hemolysis at 4 h, 30 µM [13]: < 5%; fold change (FC) [14]: 90; Activity (MDA-MB-231 [18]): Dose-Dependent Effect
CCCC[C@H](NC(=O)[C@H](CC(N)=O)NC(=O)[C@H](CCCNC(=N)N)NC(=O)[C@@H](NC(=O)CNC(=O)[C@H](C)NC(=O)[C@H](CCCCN)NC(=O)[C@H](C)NC(=O)[C@H](CCCNC(=N)N)NC(=O)[C@@H](NC(=O)CNC(C)=O)C(C)C)C(C)C)C(=O)N[C@@H](Cc1ccccc1)C(=O)N[C@@H](CCCCN)C(=O)N[C@@H](CO)C(=O)N[C@@H](CCC(=O)O)C(=O)N[C@@H](CO)C(=O)N[C@@H](Cc1ccc(O)cc1)C(N)=O (Ac-GVRAKAGVRN[Nle]FKSESY-NH2)	> 100	> 100	67.9	–	Toxic	> 100	> 100	46.3	inhibition at 1.5 µM (MDA-MB-231 [19]): < 10%
CC[C@@]1(O)C(=O)OCc2c1cc1n(c2=O)Cc2cc3ccccc3nc2-1 [CAMPTOTHECIN]	0.63	15.7	69.2	52.8	Toxic	0.03	< 0.01	44.6	inhibition (INH) (MDA-MB-231 [20]): 50.8%; Activity (Erythrocyte [21]): Toxic; solubility [22]: 3.6 µM (≈ 1.25 µg/mL); Activity (MDA-MB-231 [23]): Active; Activity (MDA-MB-231 [24]): Active; Activity (MDA-MB-231 [25]): 37.7%; IC50 (MDA-MB-231 [26]): 0.72 µM; Activity (4T1 [27]): Active; IC50 (4T1 [28]): < 0.032 µM; Drug uptake [29]: Active
